According to ChEMBL document CHEMBL1201862, “PubChem BioAssay data set” (2004):
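Method: 48-hour compound exposure of cells in 96-well plates, five concentrations, linear interpolation of endpoints. Abbreviation: GI50, concentration required for 50% inhibition of growth.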 Calls of active or inactive are those of the source. No stated cut-off is given here; in the data, active = GI50 up to about 1.1 µM and inactive = higher.

Columns and labels:
Assay in all cases: NCI anticancer screen, dose series, 48 h
A498 = test system: A498
ACHN = test system: ACHN
CCRF-CEM = test system: CCRF-CEM
COLO 205 = test system: COLO 205
HCT-116 = test system: HCT-116
HOP-92 = test system: HOP-92
KM12 = test system: KM12
MDA-MB-231 = test system: MDA-MB-231
MDA-MB-435 = test system: MDA-MB-435
MDA-N = test system: MDA-N
MOLT-4 = test system: MOLT-4
OVCAR-3 = test system: OVCAR-3
OVCAR-8 = test system: OVCAR-8
SF-539 = test system: SF-539
SK-MEL-28 = test system: SK-MEL-28
SN12C = test system: SN12C
SNB-19 = test system: SNB-19
TK-10 = test system: TK-10
SW-620 = test system: SW-620
RPMI-8226 = test system: RPMI-8226

Measured: GI50

O=C(CCc1ccc(O)cc1)NCCc1ccc(O)cc1
inactive: A498 > 100 µM | ACHN 62.4 µM | CCRF-CEM > 100 µM | COLO 205 > 100 µM | HCT-116 > 100 µM | HOP-92 > 100 µM | KM12 > 100 µM | MDA-MB-231 > 100 µM | MDA-MB-435 > 100 µM | MDA-N > 100 µM | MOLT-4 > 100 µM | OVCAR-3 > 100 µM | OVCAR-8 > 100 µM | SF-539 > 100 µM | SK-MEL-28 > 100 µM | SN12C > 100 µM | SNB-19 > 100 µM | TK-10 > 100 µM

CCOC(=O)c1c[nH]c2c(Sc3ccccc3)nccc2c1=O
inactive: A498 > 100 µM | ACHN > 100 µM | CCRF-CEM 22.3 µM | COLO 205 > 100 µM | HCT-116 73.6 µM | HOP-92 46.9 µM | KM12 44.6 µM | MDA-MB-231 53.1 µM | MDA-MB-435 39.6 µM | MDA-N > 100 µM | MOLT-4 17.8 µM | OVCAR-3 > 100 µM | OVCAR-8 > 100 µM | SF-539 77.8 µM | SK-MEL-28 > 100 µM | SN12C > 100 µM | SNB-19 > 100 µM | SW-620 > 100 µM | TK-10 > 100 µM

CC(C)(C)[Si](C)(C)OC1/C(=C/C#N)C(n2ccc(=O)[nH]c2=O)OC1CO (stereo not drawn)
inactive: A498 > 100 µM | ACHN > 100 µM | COLO 205 > 100 µM | HCT-116 > 100 µM | HOP-92 3.01 µM | KM12 > 100 µM | MDA-MB-231 > 100 µM | MDA-MB-435 > 100 µM | MDA-N > 100 µM | MOLT-4 > 100 µM | OVCAR-3 > 100 µM | OVCAR-8 > 100 µM | SF-539 > 100 µM | SK-MEL-28 > 100 µM | SNB-19 > 100 µM | SW-620 > 100 µM | TK-10 > 100 µM

CC(C)=C[C@H]1CCC2(OCCO2)[C@]1(C)COCc1ccccc1
inactive: A498 23.7 µM | ACHN 34.4 µM | CCRF-CEM 16.1 µM | COLO 205 17.6 µM | HCT-116 29.9 µM | KM12 33.7 µM | MDA-MB-231 19.7 µM | MDA-MB-435 26.4 µM | MDA-N 33.7 µM | MOLT-4 13.8 µM | OVCAR-3 22 µM | OVCAR-8 38.6 µM | RPMI-8226 18.2 µM | SF-539 21.7 µM | SK-MEL-28 60.5 µM | SN12C 24.5 µM | SNB-19 37.7 µM | SW-620 29.1 µM | TK-10 40.7 µM
